According to US10946019B2, “Nurr1:RXR activating compounds for simultaneous treatment of symptoms and pathology of Parkinson's disease” (priority 2015, dated 2021):
“Also recorded” adds a separate entry of the source.

Experiments:
Nurr1:RXRγ heterodimer = Nurr1:RXRγ heterodimer (Homo sapiens (Human), UniProt P48443); assay: Nurr1:RXRγ luciferase reporter transactivation assay; assay type: cell-based; details: SHSY-5Y
Protocol: Synthesized compounds of the invention and their analogs, shown in Table 1, below, were evaluated for activity in cellular assays. The in vitro transactivation assay determined the capacity of the compounds of the invention to activate the Nurr1:RXR heterodimers. Naive SHSY-5Y cells were transiently co-transfected, using Lipofectamine 2000 (Invitrogen), with a plasmid expressing the human receptor Nurr1, a plasmid expressing the RXR human receptor (RXRα or RXRγ receptor) and a reporter plasmid DR5-TK-Luc. After 24 hours, the culture medium was changed. The test compounds were added (final concentration between 0.5, 2.5 and 12.5 μM) in the culture medium. After incubation overnight, the expression of luciferase was measured (FIG. 1A). Positive control cells were treated with XCT0135908 (1 μM; WO 2005/047268) which induces activation of the Nurr1:RXR heterodimer and results in maximal expression of luciferase. The transcription-activating activities of various compounds of the invention are shown in FIG. 1B, as well as in Table 1, below. […] Furthermore, compound 3 is selective for the Nurr1:RXRα heterodimer over the Nurr1:RXRγ heterodimer (FIG. 1D).

Neuro2A cells = assay: MPP+ induced toxicity in Neuro2A cells; assay type: cell-based
Protocol: MPP+, eradicates approximately 75% of the cells in 24 hours. […] Naive Neuro2A cells (FIG. 2A) or SH-SY5Y neuroblastoma cells FIG. 2B,C) were cultured in RPMI 1640, 10% fetal bovine serum at 37° C. Cells were pretreated with compound 3 for 12-24 h. Subsequent change of culture medium with addition of 0, 1, 2 and 4 mM MPP+ induced cell death. MTT assays determined the relative number of surviving cells FIG. 2D).

[1] = tested on: Nurr1 heterozygote 129/SV mice treated with MPTP; assay: Neuroprotection against MPTP in Nurr1 heterozygote 129/SV mice; assay type: in vivo, mouse; details: Nurr1 heterozygote (Nurr1+/−) 129/SV mice
Protocol: 20 mg/kg MPTP injections were administered 4 times at the zero day of treatment, spaced 2 hours apart. 7 days after the MPTP injections there was approximately an 80% reduction in striatal projections and 40%-50% dopaminergic neuron death in the SN.

[2] = tested on: human midbrain-specific iPSc-derived DAergic neurons; assay: Survival of iPSc-derived DAergic neurons exposed to MPP+; assay type: cell-based; details: within 24 hours, compared to vehicle
Protocol: (§1) To ascertain the translational therapeutic potential of compound 3, we tested whether human midbrain-specific iPSc-derived DAergic neurons, as indicated by positive staining and qPCR for the neuronal markers MAP2, TH, FoxA2, Lmx1 and En1, can be protected from MPP+ toxicity. Compound 3 was able to double the number of surviving neurons after MPP+ exposure within 24 hours, compared to vehicle (FIGS. 72J-72L). The surviving control neurons had fewer and retreating projections, indicating compromised function (FIG. 72K) while the neurons that had received compound 3 had retained a complex network of projections and contacts (FIG. 72L). In addition, we tested compound 3 in iPSc-derived DAergic neurons from a PD patient carrying the LRRK2-G2019S mutation.

[3] = tested on: LRRK2-G2019S mutated DAergic neurons; assay: Neurite phenotypes of PD patient LRRK2-G2019S iPSc-derived DAergic neurons; assay type: cell-based, human; details: 12.5 μM for 14 days
Protocol: as §1

Nurr1:RXRγ heterodimer, sequence (P48443 whole entry, looked up): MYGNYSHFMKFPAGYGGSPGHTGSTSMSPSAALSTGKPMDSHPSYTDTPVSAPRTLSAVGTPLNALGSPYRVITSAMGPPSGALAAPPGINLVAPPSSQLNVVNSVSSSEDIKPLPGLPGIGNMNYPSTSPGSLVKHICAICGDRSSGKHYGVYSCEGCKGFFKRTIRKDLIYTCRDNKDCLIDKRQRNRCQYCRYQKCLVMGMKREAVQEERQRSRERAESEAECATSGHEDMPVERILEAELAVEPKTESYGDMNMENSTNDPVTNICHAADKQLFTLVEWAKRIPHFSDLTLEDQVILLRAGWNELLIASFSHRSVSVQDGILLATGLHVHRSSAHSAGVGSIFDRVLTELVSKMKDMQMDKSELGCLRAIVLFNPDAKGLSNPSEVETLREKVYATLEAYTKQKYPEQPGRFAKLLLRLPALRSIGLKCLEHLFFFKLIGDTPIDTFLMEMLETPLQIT
Nurr1:RXRγ heterodimer, sequence (P43354 whole entry partner, looked up): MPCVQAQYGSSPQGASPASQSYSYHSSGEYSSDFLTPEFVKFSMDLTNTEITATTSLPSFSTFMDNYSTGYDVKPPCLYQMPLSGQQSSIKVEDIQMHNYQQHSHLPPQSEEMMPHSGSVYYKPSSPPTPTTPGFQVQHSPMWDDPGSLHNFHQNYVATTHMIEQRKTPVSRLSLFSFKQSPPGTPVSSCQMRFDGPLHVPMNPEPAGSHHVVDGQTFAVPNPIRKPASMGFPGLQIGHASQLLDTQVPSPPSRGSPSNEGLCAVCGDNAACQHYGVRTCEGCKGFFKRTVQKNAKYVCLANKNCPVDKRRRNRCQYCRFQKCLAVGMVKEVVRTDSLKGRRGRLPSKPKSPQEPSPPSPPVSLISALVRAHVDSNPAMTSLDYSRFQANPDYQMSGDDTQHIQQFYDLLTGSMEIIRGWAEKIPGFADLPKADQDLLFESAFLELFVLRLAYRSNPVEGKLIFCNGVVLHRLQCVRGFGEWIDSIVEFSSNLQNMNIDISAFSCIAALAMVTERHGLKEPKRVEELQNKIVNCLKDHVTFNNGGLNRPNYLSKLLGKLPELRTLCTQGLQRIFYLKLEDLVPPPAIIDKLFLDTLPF

Compound: C=CCc1c(N(C)c2ccc(C(=O)O)cc2)nc(-c2ccccc2)nc1C(F)(F)F [Example 3, 4-((5-allyl-2-phenyl-6-(trifluoromethyl)pyrimidin-4-yl)(methyl)amino)benzoic acid]
- activation of Nurr1:RXRγ heterodimers (Nurr1:RXRγ heterodimer): did not activate
- protection from MPP+ induced toxicity (Neuro2A cells): protects
- neuroprotection against MPTP toxicity (surviving neuronal bodies) [1]: did not lead to a statistically significant increase; also recorded: abolished
- number of surviving neurons after MPP+ exposure [2]: double
- increase of neurite branching [3]: 650%
- increase of neurite length [3]: 83%
- increase of neurite number [3]: 38%
